The source made the active and inactive calls. How the calls were made is not given here.
Tested on: CCRIS mutagenicity, Ames/micronucleus/aberration tests
Experiment: CCRIS mutagenicity studies
[1] = Test System: AMES SALMONELLA TYPHIMURIUM, Strain/Indicator: TA98, Metabolic Activation: NONE, Method: PREINCUBATION
[2] = Test System: AMES SALMONELLA TYPHIMURIUM, Strain/Indicator: TA98, Metabolic Activation: RAT, LIVER, S-9, AROCLOR 1254, Method: PREINCUBATION
[3] = Test System: AMES SALMONELLA TYPHIMURIUM, Strain/Indicator: TA100, Metabolic Activation: NONE, Method: PREINCUBATION
[4] = Test System: AMES SALMONELLA TYPHIMURIUM, Strain/Indicator: TA100, Metabolic Activation: RAT, LIVER, S-9, AROCLOR 1254, Method: PREINCUBATION
[5] = Test System: AMES SALMONELLA TYPHIMURIUM, Strain/Indicator: TA1537, Metabolic Activation: NONE, Method: PREINCUBATION

Measured: mutagenic call

C(=C\c1ccccc1)/c1ccccc1
inactive: Test System: AMES SALMONELLA TYPHIMURIUM, Strain/Indicator: TA98, Metabolic Activation: HAMSTER, LIVER, S-9, AROCLOR 1254, Method: PREINCUBATION inactive; negative | [1] inactive; negative | [2] inactive; negative | Test System: AMES SALMONELLA TYPHIMURIUM, Strain/Indicator: TA100, Metabolic Activation: HAMSTER, LIVER, S-9, AROCLOR 1254, Method: PREINCUBATION inactive; negative | [3] inactive; negative | [4] inactive; negative | Test System: AMES SALMONELLA TYPHIMURIUM, Strain/Indicator: TA1535, Metabolic Activation: HAMSTER, LIVER, S-9, AROCLOR 1254, Method: PREINCUBATION inactive; negative | Test System: AMES SALMONELLA TYPHIMURIUM, Strain/Indicator: TA1535, Metabolic Activation: NONE, Method: PREINCUBATION inactive; negative | Test System: AMES SALMONELLA TYPHIMURIUM, Strain/Indicator: TA1535, Metabolic Activation: RAT, LIVER, S-9, AROCLOR 1254, Method: PREINCUBATION inactive; negative | Test System: AMES SALMONELLA TYPHIMURIUM, Strain/Indicator: TA1537, Metabolic Activation: HAMSTER, LIVER, S-9, AROCLOR 1254, Method: PREINCUBATION inactive; negative | [5] inactive; negative | Test System: AMES SALMONELLA TYPHIMURIUM, Strain/Indicator: TA1537, Metabolic Activation: RAT, LIVER, S-9, AROCLOR 1254, Method: PREINCUBATION inactive; negative

ClC1(Cl)[C@H](c2ccccc2)[C@@H]1c1ccccc1
inactive: Test System: CHINESE HAMSTER V-79, Strain/Indicator: V-79 (HPRT)/6-THIOGUANINE, Metabolic Activation: NONE inactive; negative

Nc1c2ccccc2nc2ccc(Cl)cc12
active: [5] active; positive

COc1cc2nc3cc(N)ccc3nc2cc1N
active: Test System: AMES SALMONELLA TYPHIMURIUM, Strain/Indicator: TA98, Metabolic Activation: S-9, Method: SUSPENSION/PLATE active; positive

O=[N+]([O-])c1ccc2c3c1ccc1cccc(c13)[C@@H](O)[C@@H]2O
active: [1] active; positive | [2] active; positive | [3] active; positive | [4] active; positive

COc1ccc(/C=C/c2ccc(N)cc2)cc1
active: Test System: AMES SALMONELLA TYPHIMURIUM, Strain/Indicator: TA98, Metabolic Activation: S-9, Method: STANDARD PLATE active; positive | Test System: AMES SALMONELLA TYPHIMURIUM, Strain/Indicator: TA100, Metabolic Activation: S-9, Method: STANDARD PLATE active; positive
inactive: Test System: AMES SALMONELLA TYPHIMURIUM, Strain/Indicator: TA98(1,8-DNP6), Metabolic Activation: NONE, Method: STANDARD PLATE inactive; negative | Test System: AMES SALMONELLA TYPHIMURIUM, Strain/Indicator: TA98(1,8-DNP6), Metabolic Activation: S-9, Method: STANDARD PLATE inactive; negative | Test System: AMES SALMONELLA TYPHIMURIUM, Strain/Indicator: TA98, Metabolic Activation: NONE, Method: STANDARD PLATE inactive; negative | Test System: AMES SALMONELLA TYPHIMURIUM, Strain/Indicator: TA100, Metabolic Activation: NONE, Method: STANDARD PLATE inactive; negative
